Experimental data reported in patent publication US6288059A, “Acylated hetero-alicyclic derivatives” (Sankyo Company, Limited, priority 1997, dated 2001).

Columns and labels:
NK2 receptor = molecular target: T1, NK2 receptor (Cavia porcellus, UniProt Q64077); test: NK2 Receptor Binding Test ([3H]-SR-48968, crude ileum membrane fraction); parameters: species or system guinea pig (male Hartley); conditions: [3H]-SR-48968 1 nM; guinea pig ileum membrane; room temperature, 30 minutes; read-out: IC50 (50% binding drug concentration) (converted)
T1 construct: A crude membrane fraction was prepared from the ileum of male Hartley guinea pigs; from tissue; host or cells: ileum of male Hartley guinea pigs, crude membrane fraction
T1 sequence (Q64077 1-402): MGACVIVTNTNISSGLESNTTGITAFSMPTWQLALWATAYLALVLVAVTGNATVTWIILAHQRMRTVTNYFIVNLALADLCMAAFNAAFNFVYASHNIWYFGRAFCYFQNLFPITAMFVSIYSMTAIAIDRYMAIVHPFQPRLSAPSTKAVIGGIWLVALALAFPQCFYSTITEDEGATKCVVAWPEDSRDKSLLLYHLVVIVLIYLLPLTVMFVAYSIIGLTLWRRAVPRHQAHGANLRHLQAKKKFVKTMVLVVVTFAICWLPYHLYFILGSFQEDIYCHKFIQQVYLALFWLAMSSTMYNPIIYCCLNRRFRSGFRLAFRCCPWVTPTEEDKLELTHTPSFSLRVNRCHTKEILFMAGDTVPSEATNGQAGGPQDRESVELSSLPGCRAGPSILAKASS
Experimental: Test Example 2 NK2 Receptor Binding Test
(a) Preparation of crude ileum membrane fraction
A crude membrane fraction was prepared from the ileum of male Hartley guinea pigs. Namely, the guinea pigs were bled from the cava abdominalis under chloroform anaesthesia and the ileum was extracted immediately.
After the contents secreta and epithelium of the ilium had been scraped off using a glass slide, the extracted ileum was thinly cut in a buffer (1) (50 mM Tris-HCl, pH 7.4) and then homogenized in a buffer (2) [buffer (1) containing 120 mM sodium chloride and 5 mM potassium chloride] using a Polytron homogenizer.
The tissue mass was removed from the homogenate by filtration with a nylon mesh (50 μm) and the supernatant was centrifuged (30,000×g, 30 minutes, 4° C.).
The resultant pellet was resuspended in an ice-cooled buffer (3) [buffer (1) containing 10 mM EDTA and 300 mM potassium chloride], allowed to stand at 4° C. for 60 minutes and then washed centrifugally twice (30,000×g, 15 minutes, 4° C.).
The crude membrane fraction was preserved at -80° C. before use.
(b) Receptor Binding Test
To a mixed solution (250 μl) of the test compound and [^3 H]-SR.-48968 (Amasham Co., final concentration: 1 nM) (50 mM Tris-HCl, pH 7.4; 6 mM manganese chloride, 800 μg/ml BSA, 8 μg/ml chymostatin, 8 μg/ml leupeptin, 80 μg/ml bacitracin, 20 μg/ml phosphoramidon) was added the crude ileum membrane fraction solution (250 μl), followed by incubation at room temperature for 30 minutes.
After the reaction, a membrane ingredient was recovered on a GF/B glass fiber filter (Whatman Co.) using an automatic filtering device (Brandel Co.).
The glass filter was used after pretreatment with a 10% of polyethyleneimine solution for about 4 hours so as to inhibit non-specificbinding as much as possible.
The membrane ingredient-recovered filter was transferred to a mini-plastic vial containing a pico flow (4 ml) and the radioactivity was measured using a liquid scintillation counter (Beckman Co., LSC3500) to determine the 50% binding drug concentration (IC50).

NK2 receptors = conditions: relative to SR48968; Tachykinin in Health and Disease abstract, 1997; cited from earlier work

Row | IC50 (NK2 receptor) | SMILES | NK2 receptor-selective antagonistic activity compared with SR.48968 (NK2 receptors)
1 | 1.39 nM | O=C(C1CC1)N1CCOC(CCN2CCC3(CC2)c2ccccc2C[S+]3[O-])(c2ccc(Cl)c(Cl)c2)C1 [Example 2, 1-{2-[(2R)-(3,4-dichlorophenyl)-4-(cyclopropanecarbonyl)morpholin-2-yl]ethyl}spiro[benzo[c]thiophene-1(3H),4'-piperidine]-(2S)-oxide] | 
2 |  | CN(C)C(=O)NC1(c2ccccc2)CCN(CC[C@@]2(c3ccc(F)c(F)c3)CN(C(=O)c3ccccc3)CCO2)CC1 [SR144190] | more potent than that of SR.48968
3 | 1.67 nM | O=C(C1CCC1)N1CCOC(CCN2CCC3(CC2)c2ccccc2C[S+]3[O-])(c2ccc(Cl)c(Cl)c2)C1 [Example 1, 1-{2-[(2R)-(3,4-dichlorophenyl)-4-(cyclobutanecarbonyl)morpholin-2-yl]ethyl}spiro[benzo[c]thiophene-1(3H),4'-piperidine]-(2S)-oxide] | 
4 | 1.58 nM | O=C(C1CCCC1)N1CCOC(CCN2CCC3(CC2)c2ccccc2C[S+]3[O-])(c2ccc(Cl)c(Cl)c2)C1 [Example 3, 1-{2-[(2R)-(3,4-dichlorophenyl)-4-(cyclopentanecarbonyl)morpholin-2-yl]ethyl}spiro[benzo[c]thiophene-1(3H),4'-piperidine]-(2S)-oxide] | 
